The numbers were not newly measured in patent publication US5876715A, “Antibodies that bind novel carbohydrate ligands (myelorollins) that cause E-selectin dependent cell rolling, and uses thereof” (The Biomembrane Institute, priority 1996, dated 1999), which cites them from elsewhere.

The conditions of data set [1]: rat, IgG immune complex lung injury; Mulligan et al. 1993; cited from earlier work.
The test system of data set [2] is E-selectin expressing CHO cells. The following applies: shear stress of 0.78 dyne/cm^2; J. Immunol. 154:5356-5366 (1995); cited from earlier work.

Regarding IV^3 NeuAcIII^3 FucnLc4 Cer [SLe^x], the “effect against inflammatory vascular injury” value in data set [1] is “provides protective effects against inflammatory vascular injury”. The “tethering of E-selectin expressing CHO cells” value in data set [2] was “tethered”.
